In patent US9012216B2, “Methods of determining efficacy of cyclodextrin therapy” (Washington University, priority 2008, dated 2015):

Assay: Stability of oxysterols in NPC plasma samples processed with/without BHT at 4° C. or room temperature
Type: physicochemical, human
Experimental: Treatments include: NPC plasma samples treated with BHT (“BHT”), no BHT (“No BHT”), at 4° C. with BHT (“4 BHT”), at 4° C. without BHT (“4 No BHT”), at room temperature (20-21° C.) with BHT (“RT BHT”), and at room temperature (20-21° C.) without BHT (“RT No BHT”).
Treatments include: NPC plasma samples treated overnight with BHT (“BHT”), no BHT (“No BHT”), at 4° C. with BHT (“4 BHT”), at 4° C. without BHT (“4 No BHT”), at room temperature (20-21° C.) with BHT (“RT BHT”), and at room temperature (20-21° C.) without BHT (“RT No BHT”).
The stability of the oxysterols triol and 7-keto prepared in accordance with the methods of the present disclosure are shown in FIGS. 7A and 7B. Patient's having confirmed NPC disease were used to obtain plasma biological samples. The plasma biological samples were processed as described in Examples 1-4 except that some of the samples were not treated with butylated hydroxytoluene (BHT, a known antioxidant that prevents further oxidation of cholesterol), and either treated at room temperature or at 4° C. with and without BHT.

Row | SMILES | Stability in plasma samples: ability to isolate and quantify
1 | CC(C)CCC[C@@H](C)[C@H]1CC[C@H]2[C@@H]3C(=O)C=C4C[C@@H](O)CC[C@]4(C)[C@H]3CC[C@]12C [7-keto, 7-ketocholesterol] | without adversely affecting
2 | CC(C)CCC[C@@H](C)[C@H]1CC[C@H]2[C@@H]3C[C@@H](O)[C@@]4(O)C[C@@H](O)CC[C@]4(C)[C@H]3CC[C@]12C [triol, cholestane-3β,5α,6β-triol] | without adversely affecting
